Results on 13 compounds are retold here after ChEMBL document CHEMBL4028823, “Pharmacological property optimization for allosteric ligands: A medicinal chemistry perspective” (Bioorg Med Chem Lett, 2017).

The structures appear in SMILES notation.

Experiment [1] deals with T1, Muscarinic acetylcholine receptor M2 (Homo sapiens, UniProt P08172).
T1 sequence (P08172 whole entry): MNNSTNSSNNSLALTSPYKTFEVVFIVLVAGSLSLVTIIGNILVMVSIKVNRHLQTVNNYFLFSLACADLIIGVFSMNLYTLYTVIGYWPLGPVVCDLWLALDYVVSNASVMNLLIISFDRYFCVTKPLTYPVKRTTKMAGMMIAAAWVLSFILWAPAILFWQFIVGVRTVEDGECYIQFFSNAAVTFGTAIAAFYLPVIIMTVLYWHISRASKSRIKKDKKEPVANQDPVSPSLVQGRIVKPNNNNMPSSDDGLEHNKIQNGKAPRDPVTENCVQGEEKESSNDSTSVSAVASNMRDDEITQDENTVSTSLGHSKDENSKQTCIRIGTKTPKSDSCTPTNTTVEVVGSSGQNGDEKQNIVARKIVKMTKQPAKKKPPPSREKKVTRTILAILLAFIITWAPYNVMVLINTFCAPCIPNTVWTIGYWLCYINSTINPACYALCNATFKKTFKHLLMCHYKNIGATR
In words: Displacement of [3H]NMS from wild-type human mAChR2 expressed in Flp-In-CHO cell membranes in presence of mAChR2 agonist acetylcholine after 90 mins by scintillation counting analysis. (In general: Displacement assays read how much labelled ligand stays bound in the presence of the test substance.)

For experiment [2], the target named is T1, Muscarinic acetylcholine receptor M2. In words: Displacement of [3H]NMS from wild-type human mAChR2 expressed in Flp-in-CHO cell membranes in presence of mAChR2 agonist xanomeline after 90 mins by scintillation counting analysis.
In experiment [3] the target is T2, Muscarinic acetylcholine receptor M1 (Homo sapiens) (UniProt P11229).
T2 sequence (whole entry): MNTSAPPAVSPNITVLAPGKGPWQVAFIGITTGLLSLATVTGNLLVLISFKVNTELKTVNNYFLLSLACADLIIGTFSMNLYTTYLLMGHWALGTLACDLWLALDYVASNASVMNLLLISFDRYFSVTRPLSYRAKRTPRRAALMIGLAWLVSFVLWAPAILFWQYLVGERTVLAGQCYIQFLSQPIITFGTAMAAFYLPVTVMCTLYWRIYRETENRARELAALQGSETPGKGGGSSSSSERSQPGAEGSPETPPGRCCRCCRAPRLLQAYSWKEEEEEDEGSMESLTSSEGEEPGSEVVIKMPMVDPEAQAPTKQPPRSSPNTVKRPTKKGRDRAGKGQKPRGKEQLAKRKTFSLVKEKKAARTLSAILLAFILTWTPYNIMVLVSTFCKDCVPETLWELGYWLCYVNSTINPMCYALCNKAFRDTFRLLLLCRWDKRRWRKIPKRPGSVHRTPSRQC
Kind of experiment: Displacement of [3H]NMS from recombinant human mAChR1 expressed in Flp-In-CHO cells after 1 hr by microbeta scintillation counting analysis. The experiment is classed as cell-based.

In experiment [4] the target is T3, Tyrosine-protein kinase BTK (Homo sapiens, UniProt Q06187). In words: Binding affinity to recombinant full length BTK (unknown origin) assessed as residence time by fluorescent tracer based TR-FRET assay. (In general: In TR-FRET formats the signal depends on donor and acceptor labels being close together.)
T3 sequence (Q06187 whole entry): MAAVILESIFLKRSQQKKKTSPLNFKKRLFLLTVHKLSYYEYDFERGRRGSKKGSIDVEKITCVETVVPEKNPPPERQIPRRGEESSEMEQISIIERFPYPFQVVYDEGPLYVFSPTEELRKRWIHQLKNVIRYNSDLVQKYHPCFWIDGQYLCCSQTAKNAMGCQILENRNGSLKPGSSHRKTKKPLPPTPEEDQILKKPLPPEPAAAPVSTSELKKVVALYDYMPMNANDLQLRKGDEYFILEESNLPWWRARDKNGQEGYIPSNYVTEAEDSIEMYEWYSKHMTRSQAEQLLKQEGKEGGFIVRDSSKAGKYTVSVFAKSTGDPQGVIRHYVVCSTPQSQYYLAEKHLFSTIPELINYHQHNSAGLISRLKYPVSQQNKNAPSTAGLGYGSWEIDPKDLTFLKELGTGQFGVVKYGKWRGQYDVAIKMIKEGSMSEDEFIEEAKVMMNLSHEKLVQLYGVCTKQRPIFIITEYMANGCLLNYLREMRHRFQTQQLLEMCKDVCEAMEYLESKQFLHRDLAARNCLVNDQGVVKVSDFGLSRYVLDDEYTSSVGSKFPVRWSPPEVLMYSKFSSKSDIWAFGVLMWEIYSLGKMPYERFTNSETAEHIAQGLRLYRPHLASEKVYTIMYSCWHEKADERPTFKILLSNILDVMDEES
The target in experiment [5] is T3, Tyrosine-protein kinase BTK. In words: Ratio of Kinact to ki for recombinant full length BTK (unknown origin).
Experiment [6] deals with T4, C-X-C chemokine receptor type 3 (Homo sapiens) (UniProt P49682).
T4 sequence (whole entry): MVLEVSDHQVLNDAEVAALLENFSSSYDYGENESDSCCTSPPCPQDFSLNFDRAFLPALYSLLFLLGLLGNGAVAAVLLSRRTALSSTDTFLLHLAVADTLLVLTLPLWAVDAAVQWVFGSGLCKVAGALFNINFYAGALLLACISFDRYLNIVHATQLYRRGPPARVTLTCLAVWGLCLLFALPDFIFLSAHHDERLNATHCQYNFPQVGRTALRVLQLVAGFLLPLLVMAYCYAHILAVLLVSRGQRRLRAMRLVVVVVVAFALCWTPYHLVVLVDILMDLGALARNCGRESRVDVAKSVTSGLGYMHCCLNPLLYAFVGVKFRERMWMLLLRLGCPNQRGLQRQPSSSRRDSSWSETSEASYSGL
In words: Displacement of [3H]RAMX3 from CXCR3 (unknown origin) expressed in HEK cells after 1 hrs by microbeta scintillation counter. Format: cell-based.

Experiment [7] deals with Metabotropic glutamate receptor 5 (Homo sapiens) (UniProt P41594). In words: Negative allosteric modulation of mGlu5 receptor (unknown origin) expressed in HEK293A cells assessed as inhibition of glutamate induced-calcium mobilization by Fluo-4 AM dye based fluorescence assay. Format: functional, cell-based.
Metabotropic glutamate receptor 5 (Homo sapiens), sequence (P41594 21-1212 limits assumed): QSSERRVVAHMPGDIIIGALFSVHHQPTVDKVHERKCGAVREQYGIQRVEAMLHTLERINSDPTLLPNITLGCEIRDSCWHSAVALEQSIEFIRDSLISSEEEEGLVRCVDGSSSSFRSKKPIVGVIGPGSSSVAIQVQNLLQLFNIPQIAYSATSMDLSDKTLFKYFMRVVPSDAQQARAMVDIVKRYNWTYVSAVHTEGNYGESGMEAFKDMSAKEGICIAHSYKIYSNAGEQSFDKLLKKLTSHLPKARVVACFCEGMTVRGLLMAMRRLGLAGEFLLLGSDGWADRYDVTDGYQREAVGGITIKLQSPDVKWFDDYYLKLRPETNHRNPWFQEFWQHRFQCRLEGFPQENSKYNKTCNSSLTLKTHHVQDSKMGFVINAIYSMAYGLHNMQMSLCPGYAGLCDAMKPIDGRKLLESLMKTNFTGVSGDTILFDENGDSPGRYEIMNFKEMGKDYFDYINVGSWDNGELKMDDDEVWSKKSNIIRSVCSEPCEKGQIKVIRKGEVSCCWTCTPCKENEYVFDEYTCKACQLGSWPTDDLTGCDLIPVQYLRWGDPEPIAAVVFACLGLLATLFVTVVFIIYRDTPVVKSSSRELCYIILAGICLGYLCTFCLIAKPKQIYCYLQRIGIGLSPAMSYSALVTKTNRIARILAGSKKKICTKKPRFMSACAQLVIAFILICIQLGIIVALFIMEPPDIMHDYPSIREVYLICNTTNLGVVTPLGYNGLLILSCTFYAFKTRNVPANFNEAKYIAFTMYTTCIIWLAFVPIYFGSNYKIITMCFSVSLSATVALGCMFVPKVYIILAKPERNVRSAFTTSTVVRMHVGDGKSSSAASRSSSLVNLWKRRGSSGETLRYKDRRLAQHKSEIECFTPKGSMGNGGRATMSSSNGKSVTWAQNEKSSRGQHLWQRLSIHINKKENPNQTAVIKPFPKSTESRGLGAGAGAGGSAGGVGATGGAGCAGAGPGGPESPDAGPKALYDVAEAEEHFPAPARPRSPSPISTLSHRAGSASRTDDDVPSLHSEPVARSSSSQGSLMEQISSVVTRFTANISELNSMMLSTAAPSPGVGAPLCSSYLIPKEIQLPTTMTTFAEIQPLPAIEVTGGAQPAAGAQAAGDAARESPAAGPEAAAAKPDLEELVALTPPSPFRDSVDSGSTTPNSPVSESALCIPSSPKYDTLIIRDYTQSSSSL
The target of experiment [8] is D(2) dopamine receptor (Homo sapiens) (UniProt P14416).
D(2) dopamine receptor (Homo sapiens), sequence (P14416 whole entry): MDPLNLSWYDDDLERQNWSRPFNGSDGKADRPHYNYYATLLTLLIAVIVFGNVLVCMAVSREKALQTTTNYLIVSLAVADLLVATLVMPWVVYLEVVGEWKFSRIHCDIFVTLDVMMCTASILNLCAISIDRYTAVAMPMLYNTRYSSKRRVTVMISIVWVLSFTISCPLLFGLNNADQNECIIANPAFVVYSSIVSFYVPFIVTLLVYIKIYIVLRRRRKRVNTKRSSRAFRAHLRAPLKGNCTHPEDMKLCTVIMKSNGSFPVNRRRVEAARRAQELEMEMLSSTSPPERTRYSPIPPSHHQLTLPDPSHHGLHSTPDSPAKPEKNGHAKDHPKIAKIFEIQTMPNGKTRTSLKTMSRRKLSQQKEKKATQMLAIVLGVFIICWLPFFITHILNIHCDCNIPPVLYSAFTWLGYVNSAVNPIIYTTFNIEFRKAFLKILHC
Description: Agonist activity at D2 long receptor (unknown origin) expressed in Flp-In-CHO cells assessed as change in transduction coefficient by measuring induction of ERK1/2 phosphorylation after 5 mins by Alphascreen assay
Experiment [9] shares this target. The source holds these as a separate data set.
Description: Displacement of [3H]spiperone from D2 long receptor (unknown origin) expressed in Flp-In-CHO cell membranes assessed as transduction coefficient by measuring dissociation half life after 5 mins by liquid scintillation counter method
Experiment [10] has the same target. The source holds these as a separate data set.
Description: Agonist activity at D2 long receptor (unknown origin) expressed in Flp-In-CHO cells assessed as change in transduction coefficient by measuring inhibition of forskolin-induced cAMP production measured after 5 mins in presence of coelenterazine by BRET assay
For experiment [11] the target is unchanged. This is another data set of the same source.
Description: Agonist activity at Rluc8-tagged D2 long receptor (unknown origin) expressed in Flp-In-CHO cells co-expressing YFP-tagged beta-arrestin2 assessed as change in transduction coefficient by measuring beta-arrestin2 recruitment measured after 5 mins by BRET assay
The target is the same in experiment [12]. The source holds these as a separate data set.
Description: Agonist activity at D2 long receptor (unknown origin) expressed in Flp-In-CHO cells co-expressing Rluc8-tagged Galphai1 assessed as change in transduction coefficient by measuring Galphai1 activation after 5 mins in presence of coelenterazine by BRET assay
For experiment [13] the target is unchanged. The source holds these as a separate data set.
Description: Agonist activity at D2 long receptor (unknown origin) expressed in Flp-In-CHO cells co-expressing Rluc8-tagged GalphaoB assessed as change in transduction coefficient by measuring GalphaoB activation in presence of coelenterazine by BRET assay
Experiment [14] has the same target. The source holds these as a separate data set.
Description: Agonist activity at D2 long receptor (unknown origin) expressed in Flp-In-CHO cells assessed as change in transduction coefficient by measuring cellular impedance measured immediately at 15 secs interval for 90 mins by xCELLigence assay
Experiment [15] has as its target T5, Glycine receptor subunit alpha-1 (Homo sapiens, UniProt P23415).
T5 sequence (P23415 whole entry): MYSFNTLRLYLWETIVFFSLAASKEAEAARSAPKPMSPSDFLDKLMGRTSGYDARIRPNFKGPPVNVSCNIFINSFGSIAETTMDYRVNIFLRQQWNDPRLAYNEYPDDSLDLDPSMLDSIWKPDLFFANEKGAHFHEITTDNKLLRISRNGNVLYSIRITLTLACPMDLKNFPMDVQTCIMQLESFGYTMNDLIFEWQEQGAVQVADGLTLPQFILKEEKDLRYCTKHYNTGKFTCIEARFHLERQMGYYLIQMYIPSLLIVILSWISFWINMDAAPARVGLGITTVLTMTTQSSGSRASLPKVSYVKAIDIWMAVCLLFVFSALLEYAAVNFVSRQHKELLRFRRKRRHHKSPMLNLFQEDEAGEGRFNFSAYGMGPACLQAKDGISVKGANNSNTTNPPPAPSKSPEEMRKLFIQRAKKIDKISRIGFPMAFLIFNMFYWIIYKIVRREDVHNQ
Kind of experiment: Positive allosteric modulatory activity at recombinant human glycine alpha1 receptor expressed in HEK293 cells assessed as potentiation of glycine-induced response at -50 mV holding potential in presence of fructose by whole cell patch clamp method. Format: cell-based. A general note: In patch-clamp work, channel activity is measured electrically.

Experiment [16] has as its target T2, Muscarinic acetylcholine receptor M1 (Homo sapiens). In words: Displacement of [3H]NMS from recombinant human mAChR1 expressed in CHO cells. The experiment is classed as cell-based.

Consider `COc1nc2sc(C(=O)NC3CC3)c(N)c2c(C)c1Cl`, for which the results for the Ki in [1] and in experiment [2] were 3.16 µM and 0.158 µM, respectively.

Take `Cc1c(Cc2ccc(-c3cnn(C)c3)nc2)cc2c(=O)n([C@H]3CCCC[C@@H]3O)cnc2c1C`: the pKb (commonly −log10 of the Kb, conventionally taken in molar units) in [3] came to 5.1.

As for `CC(C)(/C=C(\C#N)C(=O)N1CCC[C@@H]1Cn1nc(-c2ccc(Oc3ccccc3)cc2F)c2c(N)ncnc21)NC1COC1`, the TIME in experiment [4] stood at 167 h. Further, the Ratio in experiment [5] was 0.4.

Take `CCOc1cc(CC(=O)N(Cc2ccc(OC)c(B(O)O)c2)C(C)c2nc3ncccc3c(=O)n2-c2ccc(C)cc2)ccc1F` (stereo not given): the pKb in experiment [6] is 6.1.

With `Cn1cc(-c2ccc(Cc3cc4c(=O)n([C@H]5CCCC[C@@H]5O)cnc4c4ccccc34)cn2)cn1`, in [3], the pKb stood at 5.8.

As to `C#CCOc1ccc(C(=O)c2ccc(OCCOc3cccc(C#Cc4csc(C)n4)c3)cc2)cc1`, the pKb in experiment [7] came to 6.1.

In the case of `COc1ccc(Cn2cc(C(=O)O)c(=O)c3ccccc32)cc1`, the pKb in experiment [3] came out at 4.8.

Take `Cc1cc2ncn([C@H]3CCCC[C@@H]3O)c(=O)c2cc1Cc1ccc(-c2cnn(C)c2)nc1`: the pKb in experiment [3] came to 5.2.

For `O=c1[nH]c2cccc(N3CCN(Cc4cccc(-c5ccccc5)c4)CC3)c2o1`, the deltalog(Tau/KA) is -1.2 in [8]; -0.2 in experiment [10]; -0.6 in experiment [11]; 1.4 in [12]; 0.3 in experiment [13]; -0.3 in experiment [14]. In experiment [9], this compound showed a T1/2 of 86 min.

For the compound `CN(C)C(=O)N[C@H]1CC[C@H](CCN2CCN(c3cccc(Cl)c3Cl)CC2)CC1`, the deltalog(Tau/KA) in [8] was -1.1; in [10] it was 0.2; in experiment [13], 0.7; in experiment [14], 0.3. In experiment [9], this compound had a T1/2 of 1.4 min.

Turning to `O=C(CO)[C@@H](O)[C@H](O)[C@H](O)CO` [FRUCTOSE], in [15], the EC50 (usually the concentration giving half of the maximal effect) is 12.6 µM.

Consider `Cn1cc(-c2ccc(Cc3ccc4ncn([C@H]5CCCC[C@@H]5O)c(=O)c4c3)cn2)cn1`, for which, in experiment [3], the pKb worked out at 4.3.

`O=C(O)c1cn(Cc2ccc(N=C=S)cc2)c2ccccc2c1=O`: the pKb in experiment [16] was found to be 5.2.
